Experimental data taken from the NIST ThermoML archive (doi:10.1016/j.tca.2013.10.017).

Assay: xn = mol fraction of the nth substance listed
Details: for surface tension liquid-gas: Ring tensiometer; for mass density: 101 kPa, Liquid, Vibrating tube method

CCN(CC)CCO.Cl [2-(diethylamino)ethanol hydrochloride] + OCC(O)CO
x1 = 0.2
Details | mass density [kg/m3] | surface tension liquid-gas [mN/m]
298.15 K | 1205 | 58.94
303.15 K | 1202 | 58.33
308.15 K | 1199 | 57.63
313.15 K | 1196 | 56.99
318.15 K | 1193 | 56.39
323.15 K | 1188 | 55.73
328.15 K | 1187 | 55.16

CCN(CC)CCO.Cl [2-(diethylamino)ethanol hydrochloride] + OCCO
x1 = 0.25
Details | mass density [kg/m3] | surface tension liquid-gas [mN/m]
298.15 K | 1100 | 51.29
303.15 K | 1097 | 50.74
308.15 K | 1093 | 50.17
313.15 K | 1090 | 49.63
318.15 K | 1087 | 49.14
323.15 K | 1084 | 48.67
328.15 K | 1081 | 48.12

O=C(CO)[C@@H](O)[C@H](O)[C@H](O)CO [D-fructose] + C[N+](C)(C)CCO.[Cl-]
x2 = 0.67
Details | surface tension liquid-gas [mN/m]
298.15 K | 74.01
308.15 K | 71.98
318.15 K | 70.02
328.15 K | 68.03
338.15 K | 65.98
348.15 K | 64.02
358.15 K | 62.05

C[N+](C)(C)CCO.[Cl-] [choline chloride] + O=C[C@H](O)[C@@H](O)[C@H](O)[C@H](O)CO
x1 = 0.67
Details | surface tension liquid-gas [mN/m]
298.15 K | 71.71
308.15 K | 71.11
318.15 K | 70.42
328.15 K | 69.95
338.15 K | 69.44
348.15 K | 68.91
358.15 K | 68.61

C[N+](C)(C)CCO.[Cl-] [choline chloride] + OCC(O)CO
x1 = 0.33
Details | surface tension liquid-gas [mN/m]
298.15 K | 57.24
303.15 K | 56.85
308.15 K | 56.43
313.15 K | 55.93
318.15 K | 55.45
323.15 K | 55.03
328.15 K | 54.55

C[N+](C)(C)CCO.[Cl-] [choline chloride] + OCCO
x1 = 0.33
Details | mass density [kg/m3] | surface tension liquid-gas [mN/m]
298.15 K | 1118 | 48.91
303.15 K | 1116 | 48.43
308.15 K | 1112 | 47.97
313.15 K | 1110 | 47.5
318.15 K | 1106 | 47.03
323.15 K | 1104 | 46.67
328.15 K | 1101 | 46.11

C[P+](c1ccccc1)(c1ccccc1)c1ccccc1.[Br-] [methyltriphenylphosphonium bromide] + OCC(O)CO
x1 = 0.25
Details | surface tension liquid-gas [mN/m]
298.15 K | 59.35
303.15 K | 58.81
308.15 K | 58.2
313.15 K | 57.68
318.15 K | 57.06
323.15 K | 56.45
328.15 K | 55.95

C[P+](c1ccccc1)(c1ccccc1)c1ccccc1.[Br-] [methyltriphenylphosphonium bromide] + OCCO
x1 = 0.2
Details | mass density [kg/m3] | surface tension liquid-gas [mN/m]
298.15 K | 1289 | 47.51
303.15 K | 1286 | 47.06
308.15 K | 1282 | 46.57
313.15 K | 1278 | 46.12
318.15 K | 1275 | 45.59
323.15 K | 1271 | 45.12
328.15 K | 1267 | 44.64
